Structures are written as SMILES.

These results are taken from patent publication US20100227897A1, “Composition for Controlling Colorado Potato Beetles” (FMC CORPORATION, priority 2006, published 2010).

This assay deals with Colorado potato beetles (Leptinotarsa decemlineata Say). The assay is described as follows: Field test of foliar sprays on potato plots: efficacy on Colorado potato beetles, number of larvae alive. The class given is in vivo. The settings on record: for Number Larvae Alive 3 DAT: 3 days after treatment; for Number Larvae Alive 3 DAT / Number Larvae Alive 7 DAT / Number Larvae Alive 14 DAT / Number Larvae Alive 21 DAT / Number Larvae Alive 28 DAT: foliar spray; for Number Larvae Alive 7 DAT: 7 days after treatment; for Number Larvae Alive 14 DAT: 14 days after treatment; for Number Larvae Alive 21 DAT: 21 days after treatment; for Number Larvae Alive 28 DAT: 28 days after treatment; for Number Larvae Alive 0 Days: before treatment (0 days, baseline). On the procedure:
The compositions of the present invention were tested for Colorado Potato Beetle activity in the following manner:
Test compositions made up of Fury 10 EW, Mospilan 20 SP and Regent 200 SC were prepared that provided appropriate rates of application of combinations of zeta-cypermethrin, acetamiprid and fipronil, as well as zeta-cypermethrin, acetamiprid and fipronil alone.
The test was set up as a randomized complete block with 3 replicates. Each test plot was 24 meters square containing 3 rows of 50 plants. All test materials were applied as a foliar spray in 300 liters per hectare of water using a PILMET 212 sprayer at 0.35 Mpa. Observations were made before treatment (0 days), 3 days after treatment (DAT), 7 DAT, 14 DAT, 21 DAT and 28 DAT. For each observation 50 plants were inspected. For each observation the number of larvae reported was the total on the 10 most infested plants. Results reported are an average of three replicates.

Regarding `C/C(=N\C#N)N(C)Cc1ccc(Cl)nc1` [B, (E)-N^1-[(6-chloro-3-pyridyl)methyl]-N^2-cyano-N^1-methylacetamidine], where the note is “B 100 g per hectare”, the “Number Larvae Alive 3 DAT” value is on record as 8, the “Number Larvae Alive 7 DAT” value came to 22, the “Number Larvae Alive 14 DAT” value was found to be 18 and the “Number Larvae Alive 21 DAT” value is 38. Besides, for the setting “B 100 g per hectare”, the “Number Larvae Alive 28 DAT” value is on record as 47 and the “Number Larvae Alive 0 Days” value was 362.
As for `N#Cc1nn(-c2c(Cl)cc(C(F)(F)F)cc2Cl)c(N)c1[S+]([O-])C(F)(F)F` (stereo not drawn) [C, 5-amino-1-(2,6-dichloro-α,α,α-trifluoro-p-tolyl)-4-trifluoromethylsulfinylpyrazole-3-carbonitrile], where the note is “C 100 ml per hectare”, the “Number Larvae Alive 3 DAT” value stood at 2, the “Number Larvae Alive 7 DAT” value came to 0, the “Number Larvae Alive 14 DAT” value came out at 0 and the “Number Larvae Alive 21 DAT” value is on record as 22. For the same compound, under “C 100 ml per hectare”, the “Number Larvae Alive 28 DAT” value was 17 and the “Number Larvae Alive 0 Days” value came to 359.
Turning to `CC1(C)C(C=C(Cl)Cl)C1C(=O)OC(C#N)c1cccc(Oc2ccccc2)c1` [A, (R,S)-α-cyano-3-phenoxybenzyl-(1R,S)-cis-trans-3-(2,2-dichlorovinyl)-2,2-dimethylcyclopropanecarboxylate], under “A 200 ml per hectare”, the “Number Larvae Alive 3 DAT” value came out at 10, the “Number Larvae Alive 7 DAT” value was found to be 18, the “Number Larvae Alive 14 DAT” value came out at 15 and the “Number Larvae Alive 21 DAT” value worked out at 43. Besides, the “Number Larvae Alive 28 DAT” value (A 200 ml per hectare) was 20. Besides, the “Number Larvae Alive 0 Days” value (A 200 ml per hectare, total on 10 most infested plants, average of 3 replicates) is listed as 303.
